We go through one molecule from patent US8834907B2, “Active nanocomposite materials and production method thereof” (Nanobiomatters, S.L., priority 2008, dated 2014).

Structures are written as SMILES.

This assay has as its system Salmonella. The conditions noted are these: used in suspension.

Protocol: To evaluate the antimicrobial capacity of PLA films, 600 mg of film were weighed, for both control without clay and for the sample with antimicrobial clay, and placed into 10 mL of sterile culture medium. They were stored at 4° C. for four weeks, prior to inoculation with Salmonella spp.

For the molecule `O=[N+]([O-])[O-].[Ag+]` [silver nitrate], the “minimum bactericidal concentration (reducing the population to zero)” value is recorded as “around 100 ppm”.
